Reference: patent US5418219A, “Pharmaceutical composition for treatment of adult respiratory distress syndrome containing human ANP” (Suntory Limited, priority 1992, dated 1995)

Experiments:
[1] = tested on: pigs in which lung injury was induced; assay: Pulmonary arterial pressure (PAP) in pigs with HCl-induced pulmonary injury; format: in vivo, New Yorkshire male pigs; settings: pig
Procedure: (§1) A Teflon catheter was inserted into the femoral artery of each animal for measuring blood pressure, blood ANP level and blood gas. At the same time, a pulmonary arterial cathether was inserted through the right cephalic vein for recording the changes in pulmonary arterial pressure. Pulmonary arterial pressure (PAP) and right atrial pressure (RAP) were measured with thermistor-tipped pressure transducers. Pulmonary capillary wedge pressure (PCWP) was measured with a baloon-fitted catheter. Cardiac output (CO) was calculated from the average of three measurements by the thermodilution method. Body temperature was measured with a thermistor inserted into the pulmonary artery and maintained at 37°-38° C. with the aid of a heat jacket. Electrocardiograms were induced from the four limbs and the ECC waveform and the number of heart beats were measured.

[2] = tested on: pigs in which lung injury was induced; assay: Blood pressure (BP) in pigs with HCl-induced pulmonary injury; format: in vivo, New Yorkshire male pigs; settings: pig
Procedure: as §1

[3] = tested on: pigs in which lung injury was induced; assay: Urine excretion in pigs with HCl-induced pulmonary injury; settings: pig, ANP versus furosemide
Procedure: New Yorkshire male pigs weighing 16-24 kg were used in all experiments. The animals were allowed neither food nor water for 44 hr before test. They were initially anesthetized by intravenous injection of pentobarbital sodium (2.0 mg/kg) and pancuronium bromide (0.1 mg/kg) and, thereafter, the anesthetization was maintained by sustained intravenous injection of pentobarbital sodium (0.5 mg/kg/hr) and pancuronium bromide (0.1 mg/kg/hr). The animals were placed in prone position and ventilated at a frequency of 17 breaths/min with a tidal volume of 10-15 ml/kg, with the partial pressure of oxygen in arterial blood (PaO2) being held at 35-45 Torr. Physiological saline (5 ml/kg) was initially infused by intravenous injection, followed by sustained intravenous injection for 30 min at a rate of 4 ml/kg/hr.
A cannula was inserted into the bladder of each animal and urine samples were collected at 30-min intervals. Blood sampling and hemodynamic measurements were also conducted at 30-min Intervals but intermediate between collections of urine samples. Blood samples for assaying blood α-hANP levels were collected into chilled glass tubes each containing EDTA (0.1 mg/ml) and aprotinin (500 KIU/ml). […] Plasma α-hANP levels were measured by the RIA method using a rabbit anti α-hANP antibody. […]

[4] = tested on: pigs in which lung injury was induced; assay: Partial pressure of oxygen in arterial blood (PaO2) in pigs with HCl-induced pulmonary injury; format: in vivo, New Yorkshire male pigs; settings: pig
Procedure: as §1

[5] = baseline (before HCl aspiration)

`NS(=O)(=O)c1cc(C(=O)O)c(NCc2ccco2)cc1Cl` [furosemide] was tested, and the PAP ([1]; after 60 min of administration (120 min after HCl aspiration), control 18.9±2.4) was 20.4±2.3 mmHg, the PAP [1, 5] was 12.7±1.9 mmHg and the “BP lowering action / changes in BP” value [2] was “No significant changes”. The “intensity of diuretic action” value [3] was “comparable to each other”, the “compensation of the decrease in PaO2 induced by HCl aspiration” value [4] was “could be compensated” and the PaO2 ([4]; 60 min after HCl aspiration (before drug administration)) was 120.5±33.1 mmHg. For the same compound, the PaO2 ([4]; 60 min after administration (180 min after HCl aspiration), control 171.1) was 287.9±78.2 mmHg and the PaO2 [4, 5] was 490.3±29.0 mmHg.
